# Assay results: US11186594B2, “Podophyllotoxin derivatives and their use” (California Pacific Medical Center, priority 2015, dated 2021)
# Legend:
# [1] = tested on: HCT116 Human Colon Cancer Cells; assay: Colony formation assay, HCT116; assay type: cell-based; conditions: 50% inhibition of colony formation; 72 hours with drug; colonies counted after 7 days
# Procedure: (§1) Cancer cells were plated in 60 mm Petri dishes containing 2.7 ml of medium (modified McCoy's 5a medium containing 10% fetal bovine serum and 100 units/ml penicillin and 100 ug/ml streptomycin). The cells were incubated in a CO2 incubator at 37 degree C. for 5 hours for attachment to the bottom of Petri dishes. Drugs were made up fresh in medium at ten times the final concentration, and then 0.3 ml of this stock solution was added to the 2.7 ml of medium in the dish. The cells were then incubated with drugs for 72 hours at 37 degree C. At the end of incubation the drug-containing media were decanted, the dishes were rinsed with 4 ml of Hank's Balance Salt Solution (HBSS), 5 ml of fresh medium was added, and the dishes were returned to the incubator for colony formation. The cell colonies were counted using colony counter after incubation for 7 days (HCT116 cell line), 14 days (VM46 cell line) and 15 days (H23 cell line). Cell survival (%) was calculated from 3 repeated dishes for each drug concentration and the mean values of IC50 (the drug concentration producing 50% inhibition of colony formation) were determined for each tested compound.
# [2] = tested on: VM46 Human Colon Cancer Cells Overexpressing Multi-drug Resistant Gene 1; assay: Colony formation assay, VM46; assay type: cell-based; conditions: 50% inhibition of colony formation; 72 hours with drug; colonies counted after 14 days
# Procedure: as §1
# [3] = tested on: H23 Human Non-small Cell Lung Cancer Cells; assay: Colony formation assay, H23; assay type: cell-based; conditions: 50% inhibition of colony formation; 72 hours with drug; colonies counted after 15 days
# Procedure: as §1
# [4] = Toxicity study (MTD) in normal mice; assay type: in vivo, C3H female normal mice; conditions: single i.p. injection, mice checked daily for 40 days (MTD40)
# Procedure: In the toxicity studies, 2 C3H female normal mice were dosed with compounds N1-4 (N1, N2, N3, and N4) at low and moderate doses of 40 and 100 mg/kg. Since no severe and irreversible toxicity occurred at these doses, a new pair of animals was initiated at 120 mg/kg which was 1.2 times higher than 100 mg/kg. Sequential dosages (ie. 2 mice for each drug dose) were increased by a factor of 1.2-1.5 until irreversible toxicity was observed (animal became emaciated; animal underwent rapid weight loss (cachexia) (20%) within several (2-4) days)(euthanasia was required) occurred. Then another pair of animals was initiated at the highest nontoxic dosage, and successive dosages were increased by a factor of 1.15. […] Six mice were dosed at each dosage. If no irreversible toxicity occurred at the lower dosage and at least one with irreversible toxicity at the higher dose, then the lower dose was considered to be the MTD. HCL salts of N1-4 were formulated in a solution of ethanol:Cremophor EL:0.2M NaAc:saline (5:5:10:80) with a final pH of 5.0-5.5. N1-4 bases were formulated in a solution of ethanol: Cremophor EL:saline (5:5:90). All compounds were administered to C3H female normal mice by a single i.p. injection at a volume of 0.5 ml/20 g mouse. Drug toxicity was evaluated on mice checked daily for 40 days. The toxicity parameters reported were the MTD40. […] At the end of experiment, all mice were euthanized.
# Rat MTD study = assay type: in vivo, Sprague-Dawley rats
# Procedure: In the rat MTD study, Sprague-Dawley rats were dosed with 801 HCl at a concentration of 6 mg/ml via intravenous infusion or slow intravenous injection. The MTD of 801 in normal rats was 120 mg/kg/day. In the 7-day repeating dose study, the rats were administered with […] via BID slow IV injection for 7 days.
# [5] = tested on: COLO205 human colon cancer xenograft; assay: Subcutaneous COLO205 human colon cancer xenograft model; assay type: in vivo, Mus Musculus (BALB/c nude); conditions: 125 mg/kg i.p. q3d×3, day 29
# Procedure: Each mouse was inoculated subcutaneously with 5×10^6 COLO205 tumor cells in 0.1 ml PBS for tumor development. Treatments were started when the tumor volume reached 120 mm^3. […] Body weight and tumor volume were measured twice a week.
# [6] = tested on: HCT116 human colon cancer xenograft; assay: Subcutaneous HCT116 human colon cancer xenograft model; assay type: in vivo, Mus Musculus (BALB/c nude)
# Procedure: Each mouse was inoculated subcutaneously with 5×10^6 HCT116 tumor cells in 0.1 ml PBS for tumor development. Treatments were started when the tumor volume reached 100 mm^3. […] Body weight and tumor volume were measured twice a week.
# [7] = Toxicity studies (MTD) in Cynomolgus monkeys; assay type: in vivo
# [8] = tested on: K562 human chronic myeloid leukemia xenograft; assay: Subcutaneous K562 human chronic myeloid leukemia xenograft model; conditions: 300 mg/kg ip Days 8, 11, 14
compound,measurement,setting,value
CC[C@@]1(OC(=O)COc2ccc(C(=O)O[C@H]3c4cc5c(cc4[C@@H](c4cc(OC)c(OC)c(OC)c4)[C@H]4C(=O)OC[C@@H]43)OCO5)cc2)C(=O)OCc2c1cc1n(c2=O)Cc2cc3cc(OC(=O)N4CCC(N5CCCCC5)CC4)ccc3nc2-1 [N2 (801)],IC50,[1],> 0.5 µM
same,IC50,[2],~0.52 µM
same,IC50,[3],0.462 µM
same,MTD Values,[4],300 mg/kg
same,MTD for repeating dosing,"Rat MTD study; 7-day repeating dose, BID slow IV injection",60 mg/kg/day
CCC1(OC(=O)COc2ccc(C(=O)OC3c4cc5c(cc4C(c4cc(OC)c(OC)c(OC)c4)C4C(=O)OCC34)OCO5)cc2)C(=O)OCc2c1cc1n(c2=O)Cc2cc3c(CN(C)C)c(O)ccc3nc2-1.Cl (stereo not drawn) [N1 HCL Salt],MTD Values,[4],120 mg/kg
CC[C@@]1(OC(=O)COc2ccc(C(=O)O[C@H]3c4cc5c(cc4[C@@H](c4cc(OC)c(OC)c(OC)c4)[C@H]4C(=O)OC[C@@H]43)OCO5)cc2)C(=O)OCc2c1cc1n(c2=O)Cc2cc3cc(OC(=O)N4CCC(N5CCCCC5)CC4)ccc3nc2-1.Cl [Compound 801-HCl],MTD Values,[4],300 mg/kg
same,TGI,[5],70%
same,TGI,"[6]; 125 mg/kg i.p. q3d×3, day 29",93%
same,MTD for repeating dosing,"[7]; 5-day repeat dose, intravenous infusion",30 mg/kg/day
same,MTD,[7]; intravenous infusion twice daily with a 5-hour interval,60 mg/kg/day
same,MTD,"Rat MTD study; 6 mg/ml via intravenous infusion or slow intravenous injection, normal rats",120 mg/kg/day
same,TGI (Day 25),[8],98%
same,Mean Tumor Volume,[8]; Day 8 after tumor inoculation,159 ± 6 mm^3
same,Mean Tumor Volume,[8]; Day 11,221 ± 27 mm^3
same,Mean Tumor Volume,[8]; Day 14,164 ± 6 mm^3
same,Mean Tumor Volume,[8]; Day 18,47 ± 7 mm^3
same,Mean Tumor Volume,[8]; Day 21,39 ± 6 mm^3
same,Mean Tumor Volume,[8]; Day 25,74 ± 12 mm^3
same,Mean Tumor Volume,"[8]; Day 25, listed as 801-HCI",74 ± 2 mm^3
same,Mean Tumor Volume,[8]; Day 28,95 ± 19 mm^3
same,CR ratio (ratio of complete regression),[8]; complete remission by Day 21,3/8
same,maximum BW loss,[8]; next day after the 2nd dosing,7.7%
CCc1c2c(nc3ccc(O)c(CN(C)C)c13)-c1cc3c(c(=O)n1C2)COC(=O)C3(CC)OC(=O)COc1ccc(C(=O)OC2c3cc4c(cc3C(c3cc(OC)c(OC)c(OC)c3)C3C(=O)OCC23)OCO4)cc1 (stereo not drawn) [Compound N4],IC50,[1],0.0066 µM
same,IC50,[2],0.005 µM
same,IC50,[3],0.0129 µM
same,MTD Values,[4],250 mg/kg
"CCc1c2c(nc3ccc(OC(=O)N4CCC(N5CCCCC5)CC4)cc13)-c1cc3c(c(=O)n1C2)COC(=O)[C@]3(O)CC [Irinotecan, reference compound]",body weight loss,"[6]; during the treatment period, doses of the study groups",8%
CCc1c2c(nc3ccc(OC(=O)N4CCC(N5CCCCC5)CC4)cc13)-c1cc3c(c(=O)n1C2)COC(=O)C3(CC)OC(=O)COc1ccc(C(=O)OC2c3cc4c(cc3C(c3cc(OC)c(OC)c(OC)c3)C3C(=O)OCC23)OCO4)cc1.Cl (stereo not drawn) [N3 HCL Salt],MTD Values,[4],144 mg/kg
CCc1c2c(nc3ccc(O)c(CN(C)C)c13)-c1cc3c(c(=O)n1C2)COC(=O)C3(CC)OC(=O)COc1ccc(C(=O)OC2c3cc4c(cc3C(c3cc(OC)c(OC)c(OC)c3)C3C(=O)OCC23)OCO4)cc1.Cl (stereo not drawn) [N4 HCL Salt],MTD Values,[4],180 mg/kg
